“Also recorded” adds a separate entry of the source.
Columns and labels:
[1] = test system: cell line (C3A) in a liver; assay: oxidation of DPPP-labeled hepatocyte culture (C3A) by AAPH; type: cell-based; conditions: cultured for 5 days with the substance, compared with cell without the substance
Procedure: FIG. 12 illustrates the principle of the fluorescence of the diphenyl-1-pyrenlphosphine (DPPP). Using the fluorescent dye, the degree of oxidation of a cell line (C3A) in a liver was observed.
A cell where the 3,5-dihydroxy-4-methoxybenzyl alcohol according to the present invention had been added was cultured for 5 days. The cell labeled by DPPP was oxidized by 2,2′-azobis (2-methylpropionamidine)dihydrochloide, and then the fluorescence intensity of the DPPP in each cell was measured. […] It was confirmed that the antioxidant substance, 3,5-dihydroxy-4-methoxybenzyl alcohol, reduced the oxidation (see FIG. 13).

[2] = antioxidant capacity by the ORAC method (Fluorescein, AAPH); type: biochemical
Procedure: The 3,5-dihydroxy-4-methoxybenzyl alcohol can be separated and purified by the following operation. First, Trolox (Wako) or a test sample of 0.05 mL dissolved in a mixed solution of 0.075 mol/L phosphoric acid buffer solution 2.3 of 5 mL, 6.3×10^−7 mol/L Fluorescein (fluorescent probe) of 0.3 mL, and 7% (w/v) methylated β-cyclodextrin (Wako) was warmed for 10 minutes at 37° C.
1.28×10^−1 mol/L2,2′-azobis(2-amidinopropane)dihydrochloride (AAPH, Wako), which has been preliminarily warmed at 37° C., was added by 0.3 mL. For example, while stirring with a stirrer, a fluorescence intensity (excitation wavelength: 493 nm, fluorescence wavelength: 515 nm) was measured for every 10 seconds and up to 5,000 seconds by a spectrofluorophotometer (FP-6500 , JASCO, Tokyo).
An antioxidant activity is indicated by length of period (for example, the horizontal axis in FIG. 5) during which a measured fluorescence value (the vertical axis in the same drawing) at the start of measurement is maintained. The longer the period, the stronger the antioxidant activity is.
Methods for measuring an antioxidant substance in a food product have been variously reported. However, all the methods have a drawback and an advantage, and therefore the method has not been standardized or determined as an official method (confirmation of validity of an analysis value). However, in the United States of America, a supplement and a beverage with an ORAC value have already been on the market. This trend is becoming a world standard. Accordingly, in this working example, the antioxidative potency is measured by the ORAC method.
A research conference that studies on employing the ORAC method as an official method (Antioxidant-Unit Research Association) has already been founded in Japan. The ORAC method has advantages in that both a soluble sample and a liposoluble sample can be measured and the above-described any organic solvent fractions can be measured. […]

[3] = test system: normal human LDL; assay: metal oxidation of normal human LDL by copper sulfate, quantitated by TBARS method; type: biochemical
Procedure: When normal human LDL is oxidized by copper sulfate, 3,5-dihydroxy-4-methoxybenzyl alcohol was added, and the degree of oxidation of the LDL was quantitated by a TBARS method (see FIG. 11). […] The Lag-time refers to a period where a rise of a curve is not observed. It is determined that, as the time increases, antioxidant activity occurs. However, the lag-time was extended by dose dependency. The lag-time was 2 hours for addition of 270 μM, 4 hours for addition of 360 μM, and 5 hours for addition of 450 μM and 540 μM.

[4] = properties of the separated and purified substance (solubility); type: physicochemical
Excerpt: Here, the properties of 3,5-dihydroxy-4-methoxybenzyl alcohol, which was separated and purified, will be described. […] It was confirmed that the 3,5-dihydroxy-4-methoxybenzyl alcohol was a phenolic compound as illustrated in FIG. 8.

In the case of `COc1c(O)cc(CO)cc1O` [3,5-dihydroxy-4-methoxybenzyl alcohol], the “fluorescence intensity of DPPP / oxidation of C3A cell” value [1] is reported as “concentration dependence and low fluorescence intensity; also recorded: significantly reduced oxidation of a C3A cell; also recorded: showed an antioxidant capacity in a dose-dependent manner”, the “ORAC value relative to that of L(+)-ascorbic acid” value [2] is reported as “three times” and the “antioxidant capacity / antioxidant activity observed by the ORAC method” value ([2]; length of period during which the fluorescence value is maintained) is reported as “high antioxidant activity was observed; also recorded: high antioxidant capacity between those of a chlorogenic acid and L(+)- the ascorbic acid”. The ORAC value ([2]; synthesized product) was 1.47±0.40 μmoITE/μmol, the “lag-time of LDL oxidation” value ([3]; addition of 270 μM) was 2 h and the “lag-time of LDL oxidation” value ([3]; addition of 360 μM) was 4 h. The “lag-time of LDL oxidation” value ([3]; addition of 450 μM) was 5 h, the “lag-time of LDL oxidation” value ([3]; addition of 540 μM) was 5 h and the “effect on metal oxidation of the LDL” value ([3]; copper sulfate, TBARS) was “reduced the metal oxidation of the LDL; also recorded: showed an antioxidant capacity in a dose-dependent manner”. For the same compound, the “lag-time of LDL oxidation” value ([3]; substance added at 180 μM) was “lag-time was not observed” and the solubility [4] was “show lipid solubility and water solubility”.

— patent publication US9012513B2, “Antioxidant, antioxidant composition and production method therefor” (Watanabe Oyster Laboratory Co., Ltd., priority 2011, dated 2015)
